Reference: PubChem BioAssay (NCI)
Values joined by “and” are separate entries in the source; they are usually repeats but may differ in a detail not shown here. Equal entries are not always repeated.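 48-hour exposure; five concentrations; linearly interpolated endpoints. GI50 is the concentration that inhibits growth by half. TGI denotes the concentration required for complete inhibition of growth.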 Where a SMILES comes first, the peptide text is derived from it. [ ]: non-standard residue; d: D form. Orn = NCCC[CH](N)C(=O)O

Columns and labels:
Assay in all cases: NCI-60 cell line screen, 48 h
[1] = tested on: UACC-62 melanoma
[2] = tested on: DU-145 prostate
[3] = tested on: UACC-257 melanoma
[4] = tested on: SK-MEL-5 melanoma
[5] = tested on: HCT-15 colon
[6] = tested on: SF-295 CNS
[7] = tested on: UO-31 renal
[8] = tested on: ACHN renal
[9] = tested on: OVCAR-8 ovarian
[10] = tested on: MCF7 breast

Compound	GI50 [1]	TGI [1]	GI50 [2]	TGI [2]	GI50 [3]	TGI [3]	GI50 [4]	TGI [4]	GI50 [5]	TGI [5]	GI50 [6]	TGI [6]	GI50 [7]	TGI [7]	GI50 [8]	TGI [8]	GI50 [9]	TGI [9]	GI50 [10]	TGI [10]
C[C@H]1[C@H](C)CC[C@]2(C(=O)O)CC[C@]3(C)C(=CC[C@@H]4[C@@]5(C)CC[C@H](OC(=O)/C=C\c6ccc(O)cc6)C(C)(C)[C@@H]5CC[C@]43C)[C@H]12	10.9 µM	22.8 µM	4.07 µM	17.6 µM	1.46 µM	8.49 µM	3.85 µM	14.3 µM	3.08 µM	12.7 µM	3.03 µM	31.2 µM	13.6 µM	> 100 µM	2.89 µM	12.1 µM	2.6 µM	9.1 µM	1.36 µM	3.63 µM
Cc1cc(NC(=O)C(=O)Cc2nc3ccccc3s2)ccc1Cl	–	> 100 µM	–	> 100 µM	–	> 100 µM	–	> 100 µM	–	> 100 µM	–	> 100 µM	–	> 100 µM	–	> 100 µM	–	> 100 µM	–	> 100 µM
COc1cc2c(/C=C3/C(=O)Nc4c3ccc3ccccc43)c(Cl)[nH]c2cc1C	0.0119 µM	> 19.8 µM	0.165 µM	> 15.7 µM	0.316 µM	> 50 µM	0.103 µM	0.284 µM	0.0427 µM	0.143 µM	0.00761 µM	0.0237 µM	0.0216 µM	> 34.1 µM	0.0261 µM	6.92 µM	0.0176 µM	1.82 µM	0.0342 µM	> 50 µM
Cn1cc(C2=C(c3cccc(NCC(O)CO)c3)C(=O)NC2=O)c2cc(Cl)ccc21 (centres undefined)	4.66 µM	11.6 µM	5.58 µM	> 19.3 µM	5.51 µM	15.4 µM	3.32 µM	7.14 µM	5.97 µM	> 25 µM	0.237 µM	8.94 µM	5.99 µM	17.6 µM	3.53 µM	> 19.6 µM	5.08 µM	17.4 µM	0.356 µM	12.6 µM
O=C1/C(=c2\c3ccccc3n3c(=O)c4ccccc4nc23)Nc2ccccc21	–	> 100 µM	–	> 100 µM	–	> 100 µM	–	> 100 µM	–	> 100 µM	–	> 100 µM	–	> 100 µM	–	> 100 µM	–	> 100 µM	–	> 100 µM
COc1cc([C@@H]2c3cc4c(cc3[C@H](O)[C@H]3COC(=O)[C@@H]23)OCO4)cc(OC)c1OC	0.407 µM and 0.153 µM	> 100 µM	0.544 µM and 0.237 µM	–	> 100 µM	> 100 µM	0.351 µM and 0.0355 µM	1.8 µM and 0.254 µM	0.415 µM and 0.327 µM	> 100 µM	0.285 µM and 0.104 µM	1.61 µM	0.48 µM and 0.602 µM	> 100 µM	0.568 µM and 1.41 µM	> 100 µM	0.707 µM and 0.397 µM	> 100 µM	0.321 µM and 0.0612 µM	> 100 µM
CC(C)CC1NC(=O)C(CCCN)NC(=O)C(C(C)C)NC(=O)C2CCCN2C(=O)C(Cc2ccccc2)NC(=O)C(CC(C)C)NC(=O)C(CCCN)NC(=O)C(C(C)C)NC(=O)C2CCCN2C(=O)C(Cc2ccccc2)NC1=O (centres undefined) (cyclo(FPV[Orn]LFPV[Orn]L); configuration not given here)	< 0.0123 µM and 0.0315 µM	0.443 µM and 1.26 µM	0.0184 µM and 0.0529 µM	1.45 µM and 1.97 µM	0.00872 µM and 0.0145 µM	0.048 µM and 0.0705 µM	0.00725 µM	0.0199 µM and 0.0229 µM	0.213 µM and 0.436 µM	4.06 µM and 4.7 µM	0.00644 µM and 0.0206 µM	0.0186 µM and 0.0735 µM	0.599 µM and 1.64 µM	3.61 µM and 6.37 µM	0.0961 µM and 0.0816 µM	3.25 µM and 2.21 µM	0.0113 µM and 0.0252 µM	0.591 µM and 1.32 µM	0.0109 µM	0.373 µM and 0.102 µM
Cc1cc(Cl)ccc1Nc1nc(C(F)(F)F)ccc1C(=O)N/N=C/c1ccc(F)cc1	1.79 µM	3.82 µM	3.46 µM	13.8 µM	1.33 µM	3.67 µM	1.58 µM	3.13 µM	0.621 µM	12.4 µM	0.71 µM	3.63 µM	1.71 µM	5.35 µM	2.48 µM	10.8 µM	1.48 µM	6.33 µM	2.64 µM	10.5 µM
CCN(CC)CCCC(C)Nc1ccnc2cc(Cl)c(SCc3ccccc3)cc12 (centres undefined)	0.214 µM	0.585 µM	3.45 µM	13.5 µM	0.781 µM	2.11 µM	1.31 µM	2.58 µM	0.417 µM	1.63 µM	1.32 µM	3.02 µM	1.35 µM	2.95 µM	1.3 µM	2.73 µM	1.73 µM	3.44 µM	0.506 µM	1.72 µM
Cn1c2ccccc2c(=S)c2cc(NC(=O)CCCCC(=O)Nc3ccc4c(c3)c(=S)c3ccccc3n4C)ccc21	–	> 100 µM	–	> 100 µM	–	> 100 µM	–	> 100 µM	–	> 100 µM	–	> 100 µM	–	> 100 µM	–	> 100 µM	–	> 100 µM	–	> 100 µM
N=C1N=Nc2nc(C3(c4nc5n(c4O)C(=N)N=N5)Cc4ccccc4C3=O)c(O)n21 (centres undefined)	–	> 100 µM	–	> 100 µM	–	> 100 µM	–	> 100 µM	–	> 100 µM	–	> 100 µM	–	> 100 µM	–	> 100 µM	–	> 100 µM	–	> 100 µM
